According to patent US4562183A, “Perfluoro-1-azabicyclo(5,3,0)decane compounds useful as blood substitutes” (I.S.C. Chemicals Limited, priority 1982, dated 1985):
Where two headings read alike, the source gives them in different places. One block for each compound: values may come before it.

Columns and labels:
[1] = Emulsion forming capacity with Pluronic F68, standing overnight; type: physicochemical; conditions: for Emulsification time to form emulsion: Pluronic F68 in deionised water, high speed mixer; for Separation (creaming) of the emulsion: standing at room temperature overnight, Pluronic F68
Experimental: To 10 ml. of perfluoro-1-azabicyclo(5,3,0)decane (ABCD) was added 10 ml. of solution made by dissolving 8.0 g of a non-ionic, polyoxyethylene-polyoxypropylene surfactant ('Pluronic F68', RTM) in 220 ml. of deionised water. The mixture was emulsified for a few minutes using a high speed mixer to form an emulsion having the appearance of diluted milk.
In a comparison test, an emulsion was formed using perfluorodecalin. An emulsion of similar appearance to that formed with ABCD required about 10 minutes emulsification.

[2] = aqueous media; cited from earlier work
[3] = Solubilities at 25° C. of perfluoro-1-azabicyclo(5,3,0)decane in solvents; type: physicochemical
From the text: Solubility of perfluoro-1-
azabicyclo(5,3,0)decane in […]

[4] = Oxygen solubility in fluorocarbon; type: physicochemical; conditions: oxygen-saturated at 20° C.; corrected for vapour pressure of fluorocarbon
Experimental: A portion of 20 ml. of ABCD was degassed by boiling and cooled to 20° C. while being bubbled with oxygen gas. The oxygen-saturated liquid was then degassed under vacuum and the gas evolved was collected and its volume measured at a known temperature and pressure. After allowing for the vapour pressure of the fluorocarbon, the solubility of oxygen was calculated to be in the range 45±10 mls of O2 (at 760 mm Hg & 0° C.) per 100 ml. of fluorocarbon. The solubility of oxygen in ABCD is thus adequate to permit the use of this fluorocarbon as an oxygen carrier for medical use.

[5] = Toxicity: weight gain of rats administered emulsion; type: in vivo; conditions: Wistar strain male rats, ABCD emulsion, 4 g/kg as ABCD
Experimental: (§1) ABCD was evaluated as candidate for an artificial blood substitute from the aspects of toxicity, feasibility of emulsification and excretion rate from the organs.

[6] = Stability of emulsion with yolk phospholipids; type: physicochemical; conditions: heating at 100° C. for 30 minutes and storage at 4° C. and 25° C. for 2 weeks
Experimental: In order to evaluate the feasibility of emulsification, ABCD was emulsified with yolk phospholipids by using a Manton-Gaulin homogenizer and the stability to heating at 100° C. for 30 minutes and storage at 4° C. and 25° C. for 2 weeks were examined.

[7] = Excretion rate from the organs; type: in vivo, rats
Experimental: as §1

[8] = Retention in body organs with time (gas chromatography); type: in vivo, rats; conditions: rat, 0.32 mL/100 g, 0.32 ml. fluorocarbon per 100 gm body weight; for concentration at 120 h: 5 Days; for concentration at 168 h: 7 Days (Av. of 2); for concentration at 240 h: 10 Days; for concentration at 504 h: 21 Days
Experimental: 4. RETENTION OF PERFLUORO-1-AZABICYCLO(5,3,0)DECANE BODY ORGANS WITH TIME
Gas chromatography results--rats injected with emulsion of ABCD (0.32 ml. fluorocarbon per 100 gm body weight). The following residual fluorocarbon concentrations were observed. (In mg. fluorocarbon/gm tissue).

[9] = in vivo; cited from earlier work
[10] = Base stability of fluorination product; type: physicochemical
[11] = heart, read-out: Residual fluorocarbon concentration, heart
[12] = kidney, read-out: Residual fluorocarbon concentration, kidney
[13] = liver, read-out: Residual fluorocarbon concentration, liver
[14] = lung, read-out: Residual fluorocarbon concentration, lung
[15] = spleen, read-out: Residual fluorocarbon concentration, spleen

Emulsification time to form emulsion [1]: about 10 minutes
Separation (creaming) of the emulsion [1]: pronounced creaming
SMILES: FC1(F)C(F)(F)C(F)(F)C2(F)C(F)(F)C(F)(F)C(F)(F)C(F)(F)C2(F)C1(F)F (stereo not shown) [perfluorodecalin, reference compound]
Emulsion stability [2]: does not easily give a stable emulsion in aqueous media

SMILES: FC1(F)N2C(F)(F)C(F)(F)C(F)(F)C2(F)C(F)(F)C(F)(F)C(F)(F)C1(F)F (stereo not shown) [ABCD, perfluoro-1-azabicyclo(5,3,0)decane]
Solubility in acetone ([3]; acetone): 6.84 g in 100 g solvent
Solubility in hexane ([3]; hexane): miscible
Solubility in methanol ([3]; methanol): 1.36 g in 100 g solvent
Solubility in trichloro-trifluoroethane ([3]; trichloro-trifluoroethane): miscible
Solubility in water ([3]; water): hardly soluble
Emulsification time to form emulsion [1]: a few minutes
Separation (creaming) of the emulsion [1]: minor amount of separation ('creaming')
Solubility of oxygen [4]: 45±10 mls of O2 (at 760 mm Hg & 0° C.) per 100 ml. of fluorocarbon
Weight gain [5]: gained weight favourably
Stability of emulsion [6]: acceptably stable
Amount detected in all organs ([7]; 2 weeks after injection): only trace amounts
Elimination from the organs ([7]; after injection): very rapidly eliminated from the organs
concentration at 120 h [8, 11]: 130000 ng/g
concentration at 120 h [8, 12]: 170000 ng/g
concentration at 120 h [8, 13]: 1.18e+07 ng/g
concentration at 120 h [8, 14]: 560000 ng/g
concentration at 120 h [8, 15]: 4.35e+07 ng/g
concentration at 168 h [8, 11]: 450000 ng/g
concentration at 168 h [8, 12]: 100000 ng/g
concentration at 168 h [8, 13]: 6.73e+06 ng/g
concentration at 168 h [8, 14]: 100000 ng/g
concentration at 168 h [8, 15]: 2.23e+07 ng/g
concentration at 240 h [8, 11]: 260000 ng/g
concentration at 240 h [8, 12]: 190000 ng/g
concentration at 240 h [8, 13]: 2.51e+06 ng/g
concentration at 240 h [8, 14]: 160000 ng/g
concentration at 240 h [8, 15]: 1.2e+08 ng/g
concentration at 336 h ([8]; 14 Days (* not Av. of 2), spleen, read-out: Residual fluorocarbon concentration, spleen): 3.69e+06 ng/g
concentration at 336 h ([8]; 14 Days (Av. of 2), heart, read-out: Residual fluorocarbon concentration, heart): 180000 ng/g
concentration at 336 h ([8]; 14 Days (Av. of 2), kidney, read-out: Residual fluorocarbon concentration, kidney): 150000 ng/g
concentration at 336 h ([8]; 14 Days (Av. of 2), liver, read-out: Residual fluorocarbon concentration, liver): 380000 ng/g
concentration at 336 h ([8]; 14 Days (Av. of 2), lung, read-out: Residual fluorocarbon concentration, lung): 150000 ng/g
concentration at 504 h [8, 11]: 160000 ng/g
concentration at 504 h [8, 12]: 160000 ng/g
concentration at 504 h [8, 13]: 40000 ng/g
concentration at 504 h [8, 14]: 150000 ng/g
concentration at 504 h [8, 15]: 1.12e+06 ng/g

SMILES: FC(F)(F)C(F)(F)C(F)(F)N(C(F)(F)C(F)(F)C(F)(F)F)C(F)(F)C(F)(F)C(F)(F)F [perfluorotripropylamine]
Emulsion stability [2]: gives a more stable emulsion than perfluorodecalin
Retention time in the body [9]: longer retention time in the body

SMILES: FC(F)(F)C1(F)N2C(F)(F)C(F)(F)C(F)(F)C2(F)C(F)(F)C(F)(F)C(F)(F)C1(F)F (stereo not shown) [perfluoro-1-aza-2-methyl(5,3,0)decane]
Stability to base [10]: base-stable
